Reference: US20240010726A1, “LFA-1 SIGNALLING MEDIATOR FOR USE IN CANCER THERAPY” (Universität Basel, priority 2020, published 2024)

What was measured:
[1] = test system: focal adhesion kinase (FAK), TNF; test: FAK phosphorylation and TNF expression in activated PHA T cell blasts; assay type: cell-based, human; settings: Mg^2+-restricted conditions
Description: FIG. 2: Extracellular magnesium promotes memory-specific activation via LFA-1. Glycolytic switch of human EM CD8 T cells (a) and naïve CD8 T cells (b) subsets upon injection of anti-CD3 Ab only, or anti-CD3 and anti-CD28 Ab, was assessed by metabolic flux analysis in medium containing either 1.2 mM Mg^2+, 0 mM Mg^2+, or medium which was reconstituted from 0 mM to 1.2 mM Mg^2+ immediately prior to activation (0→1.2 mM Mg^2+). (a) Results for human effector memory (EM) and (b) for human naïve CD8 T cells. Glycolytic switch was quantified by subtracting […] measurements. (c) Flow cytometric analysis of surface activation markers on human EM CD8 T cells 24 hours after activation by plate-bound anti-CD3 Ab and soluble anti-CD28 Ab, in 1.2 mM and 0 mM Mg^2+ media, respectively. (d) Abundance of inflammatory cytokines in corresponding EM CD8 T cell culture supernatants, determined by CBA. (e) CD11a (LFA-1) surface expression on human naïve and EM CD8 T cells as well PHA T cell blasts. Flow cytometry-based assessment of total LFA-1 expression assessed by mAb TS2/4 (f), closed conformation of αL by mAb HI111 (g), extended conformation of LFA-1 by mAb Kim127 (h), open head-piece conformation of LFA-1 by mAb m24 (i), phosphorylation of focal adhesion kinase (FAK) […] as well TNF expression (k)±TCR-induced activation in different extracellular Mg^2+ concentrations. […]

[2] = test system: WT and LFA-1^−/− Jurkat T cells; test: Calcium flux assay in WT and LFA-1−/− Jurkat T cells; assay type: cell-based, human
Description: FIG. 3: Magnesium regulates LFA-1 mediated T cell activation and cytotoxicity as well BiTE- and CAR T-cell functionality. (a) Glycolytic switch of murine WT and LFA-1^−/− CTLs upon injection of anti-CD3/28 Ab in medium containing 1.2 mM Mg^2+ and 0 mM Mg^2+, presented as quantification of summarized data with n=4 mice. (b) Calcium flux in WT and LFA-1^−/− Jurkat T cells stimulated with anti-CD3 Ab in 1.2 mM and 0 mM Mg^2+ medium, respectively. Cells were loaded with Fluo4, and signal intensity as recorded by plate reader, was normalized to unstimulated baseline values. […] Quantified results of n=3 mice with 3 technical replicates each. […] The effector to target cell ratio was 3:1. Results are quantified of n=3 mice with 3 technical replicates each. (e) Representative CD11a (LFA-1) surface expression on human naïve and EM CD8 T cells, PHA T cell blasts and REP T cells, assessed by flow cytometry. […] The effector to target cell ratio was 1:1. Data is presented as quantified results of n=5 healthy donors (f, g, h), n=3 healthy donors with 2 technical replicates each or n=1 healthy donor with 4 technical replicates (j). […] The effector to target cell ratio was 1:1. Data is presented as quantified results of n=1 healthy donor with 4 technical replicates. […] (n) Representative histogram of CD11a expression on PHA-blasts, untransduced T cells as well anti-CD19 expressing CAR T cells. […] Pooled results of n=6 from 2 independent experiments are shown. (p) Abundance of IFNγ in cell culture supernatants corresponding to the conditions depicted in (o) at 24 hours was determined by ELISA (n=8, 3 independent experiments). (q) Tumor growth curves of mice placed on either Mg^2+-depleted diet or respective control diet and treated with either anti-PSMA CAR T cells, untransduced T cells or saline solution. Representative of n=2 independent experiments with n=6 mice per group. Jurkat T cells were loaded with Fluo4 (Invitrogen) at a final concentration of 2 μM in Mg^2+ free self-made medium for 30 min at 37° C. […] Fluorescence intensity over time was measure with a Tecan Spark M10 plate reader. […]

[3] = anti-CD3 Ab, 0 mM vs 1.2 mM Mg^2+

## [Mg+2] [Mg^2+, Magnesium]
[1]
  Phosphorylation of focal adhesion kinase (FAK): decreased
[2]; [3]
  Ca^2+ influx in LFA-1^−/− Jurkat T cells: independent from extracellular Mg^2+ concentrations
  Ca^2+ influx in WT Jurkat T cells: decreased Ca^2+ influx
[2]; extracellular Mg^2+ depletion
  Prolonged, sustained Ca^2+ influx: absence of prolonged, sustained Ca^2+ influx
